Measurements from paper PMC11109052, “Metabolism characterization and toxicity of N-hydap, a marine candidate drug for lung cancer therapy by LC–MS method” (Natural Products and Bioprospecting, 2024).

Columns and labels:
[1] = system: HLMs; experiment: Kinetics of N-hydap glucuronidation in HLMs; format: in vitro ADME, human; conditions: HLM
Description: Various microsomes including HLMs, HKMs, HIMs, RLMs, RKMs, MLMs and MKMs were involved in CYP and UGT reactions of N-hydap. A typical CYP incubation mixture included 0.5 mg/mL microsomes protein, 3.3 mM glucose-6-phosphate, 3.3 mM MgCl2, 0.4 U/mL glucose-6-phosphate dehydrogenase, and N-hydap (1, 2.5, or 10 μM) in the 50 mM potassium phosphate buffer (KPI, pH 7.4). The incubation mixture was preincubated at 37 °C for 5 min, and the reaction was started by adding NADP to form a NADPH-regenerating system. Simultaneously, the classic UGT reaction system consisted of 50 mM KPI, 5 mM MgCl2, 0.5 mg/mL microsomes, 0.125 mg/mL alamethicin, and 5.25 mg/mL saccharolactone. The reaction was initiated after supplying UDPGA. The CYP and UGT mixtures were incubated at 37 °C in a shaking water bath (80 rpm) for 1.5 h to enhance metabolite formation. To terminate the reaction, an ice-cold solution of Tes (50 ng/mL, dissolved in methanol and used as an internal standard) was added to half of the mixture volume. […]
(§1) The substrate concentrations used for HLMs were 0.05, 0.5, 2, 2.5, 5, 10, 25, 50, and 100 μM. […] The rates of N-hydap-G by enzymes were expressed as nmol/mg/min, representing the amount of metabolites formed per minute per milligram of protein. Kinetic parameters were determined by analyzing the Eadie–Hofstee plots. […]

[2] = system: recombinant human CYP enzymes (CYP1A2, CYP2B6, CYP2C9, CYP2C19, CYP2D6, CYP3A4, CYP4A11 and CYP4F2); experiment: Incubation with 8 recombinant human CYP enzymes; format: in vitro ADME; conditions: N-hydap 2.5 μM; enzyme concentrations of 2 and 4 μg/mL; all recombinant CYPs
Description: (§2) Incubation of N-hydap (2.5 μM) with eight recombinant human CYP enzymes (CYP1A2, CYP2B6, CYP2C9, CYP2C19, CYP2D6, CYP3A4, CYP4A11 and CYP4F2) at three enzyme concentrations (2, 4, and 20 μg/mL) was conducted following the same procedure as described above for microsomes. Subsequently, incubation with N-hydap (1, 2.5, and 6 μM) and twelve recombinant human UGT isoforms (UGT1A1, UGT1A3, UGT1A4, UGT1A6, UGT1A7, UGT1A8, UGT1A9, UGT1A10, UGT2B4, UGT2B7, UGT2B15 and UGT2B17) was performed, with the enzyme concentration used at 2 μg/mL. All reactions were carried out in triplicate.

[3] = molecular target: T1, recombinant human CYP enzymes (CYP1A2, CYP2B6, CYP2C9, CYP2C19, CYP2D6, CYP3A4, CYP4A11 and CYP4F2) (Homo sapiens, UniProt P05177); experiment: Incubation with 8 recombinant human CYP enzymes; format: in vitro ADME; conditions: Table 4 experimental column
T1 construct: purchased Cypex (Scotland, UK)
T1 sequence (P05177 whole entry): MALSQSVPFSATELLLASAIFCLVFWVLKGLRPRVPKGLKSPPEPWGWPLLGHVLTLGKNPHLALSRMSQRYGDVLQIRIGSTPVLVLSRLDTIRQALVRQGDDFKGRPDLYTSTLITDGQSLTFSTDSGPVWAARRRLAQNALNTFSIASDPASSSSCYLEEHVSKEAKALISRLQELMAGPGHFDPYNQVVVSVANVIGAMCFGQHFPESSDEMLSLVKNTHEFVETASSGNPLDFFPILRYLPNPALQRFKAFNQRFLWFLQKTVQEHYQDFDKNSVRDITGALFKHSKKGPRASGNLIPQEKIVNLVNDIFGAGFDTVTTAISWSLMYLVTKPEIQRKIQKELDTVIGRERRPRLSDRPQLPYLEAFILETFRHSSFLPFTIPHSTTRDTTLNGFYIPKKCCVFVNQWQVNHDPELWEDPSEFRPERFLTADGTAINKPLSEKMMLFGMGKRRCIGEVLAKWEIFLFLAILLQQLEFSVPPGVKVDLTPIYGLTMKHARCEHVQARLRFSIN
Description: as §2

[4] = molecular target: T2, recombinant human CYP enzymes (CYP1A2, CYP2B6, CYP2C9, CYP2C19, CYP2D6, CYP3A4, CYP4A11 and CYP4F2) (Homo sapiens, UniProt P11712); experiment: Incubation with 8 recombinant human CYP enzymes; format: in vitro ADME; conditions: Table 4 experimental column
T2 construct: purchased Cypex (Scotland, UK)
T2 sequence (P11712 whole entry): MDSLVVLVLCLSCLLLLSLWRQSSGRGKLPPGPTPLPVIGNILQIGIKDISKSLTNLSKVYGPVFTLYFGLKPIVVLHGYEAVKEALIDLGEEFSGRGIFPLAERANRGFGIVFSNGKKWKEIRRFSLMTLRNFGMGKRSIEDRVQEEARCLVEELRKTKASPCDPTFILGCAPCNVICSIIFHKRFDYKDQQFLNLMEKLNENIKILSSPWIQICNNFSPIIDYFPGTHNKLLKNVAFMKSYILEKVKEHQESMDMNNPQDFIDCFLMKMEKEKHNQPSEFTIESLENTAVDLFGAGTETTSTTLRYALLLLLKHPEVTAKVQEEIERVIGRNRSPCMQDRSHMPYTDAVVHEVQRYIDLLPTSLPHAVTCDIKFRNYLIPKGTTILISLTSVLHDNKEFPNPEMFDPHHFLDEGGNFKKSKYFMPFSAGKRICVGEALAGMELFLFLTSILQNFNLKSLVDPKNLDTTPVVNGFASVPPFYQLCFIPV
Description: as §2

[5] = molecular target: T3, recombinant human CYP enzymes (CYP1A2, CYP2B6, CYP2C9, CYP2C19, CYP2D6, CYP3A4, CYP4A11 and CYP4F2) (Homo sapiens, UniProt P08684); experiment: Incubation with 8 recombinant human CYP enzymes; format: in vitro ADME; conditions: Table 4 experimental column
T3 construct: purchased Cypex (Scotland, UK)
T3 sequence (P08684 whole entry): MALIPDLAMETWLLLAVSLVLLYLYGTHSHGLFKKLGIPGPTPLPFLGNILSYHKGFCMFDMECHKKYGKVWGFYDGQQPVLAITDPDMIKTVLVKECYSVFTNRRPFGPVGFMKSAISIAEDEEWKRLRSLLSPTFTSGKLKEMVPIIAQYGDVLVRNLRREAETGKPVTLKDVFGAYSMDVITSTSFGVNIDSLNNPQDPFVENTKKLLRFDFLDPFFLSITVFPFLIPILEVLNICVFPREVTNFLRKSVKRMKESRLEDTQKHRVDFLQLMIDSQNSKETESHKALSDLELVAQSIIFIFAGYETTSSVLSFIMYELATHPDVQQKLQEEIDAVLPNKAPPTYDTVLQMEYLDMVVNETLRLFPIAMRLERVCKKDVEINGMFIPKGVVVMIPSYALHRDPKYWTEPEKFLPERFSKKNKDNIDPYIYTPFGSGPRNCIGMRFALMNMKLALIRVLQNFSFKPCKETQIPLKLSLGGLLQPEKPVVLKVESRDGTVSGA
Description: as §2

[6] = system: RKMs; experiment: Kinetics of N-hydap glucuronidation in RKMs; format: in vitro ADME, rat; conditions: RKM
Description: In this study, the rats were executed by drawing blood from the abdominal aorta and mice were sacrificed with cervical dislocation before the liver and kidneys were excised. The liver and kidneys were removed, and washed with chilled cleansing solution (contains 8 mM KH2PO4, 5.6 mM EDTA·K2·2H2O, 1 mM DTT and 229.6 μM PMSF), homogenized in a tissue homogenate buffer with a pH of 7.4, (consisting of […], 8 mM K2HPO4, 250 mM sucrose, 1 mM EDTA·K2·2H2O and 229.6 μM PMSF). Subsequently, the homogenate was centrifuged at 10,400 rpm at 4 °C for 15 min, and the supernatant was then centrifuged at 35,000 rpm at 4 °C for 60 min. A 250 mM sucrose buffer was added to the pellet to reconstitute and the resuspension was stored at − 80 °C until use. Microsome protein concentrations were measured by Omni-Easy™ Instant BCA Protein Assay Kit.
Various microsomes including HLMs, HKMs, HIMs, RLMs, RKMs, MLMs and MKMs were involved in CYP and UGT reactions of N-hydap. […]
as §1

`CC1CCC2C(C=CC(C)C2C(=O)c2c(O)c(C3(O)CCC(O)C4OC43)cn(O)c2=O)C1` (stereo not drawn) [N-hydap, N-Hydroxyapiosporamide] was tested, and the Km [1] was 116 µM, the prototype elimination rate [2] was “less than 25%” and the “CYP1A2 substrate, experimental results” value [3] was “Yes”. For the same compound, the “CYP2C9 substrate, experimental results” value [4] was “Yes”, the “CYP3A4 substrate, experimental results” value [5] was “Yes” and the Km [6] was 125 µM.
